Literature values in US12558321B2, “Pharmaceutical formulation” (CIPLA LIMITED, priority 2018, dated 2026).

solubility at neutral conditions (neutral conditions): poor solubility | solubility in water (water): slightly soluble in water
SMILES: COC(=O)c1ccc2c(c1)NC(=O)/C2=C(\Nc1ccc(N(C)C(=O)CN2CCN(C)CC2)cc1)c1ccccc1 [Nintedanib]
